Species on record: Rattus norvegicus
Assay: DrugMatrix - Regimen: Daily Repeat
Type: toxicity, organism-based, Sprague-Dawley
Design: regimen Daily Repeat, gender Male, age 6-8 weeks
Conditions: in vivo, po, route oral GAVAGE, vehicle .5 % CMC; for ABSOLUTE BASOPHIL / ABSOLUTE EOSINOPHIL / ABSOLUTE LYMPHOCYTE / ABSOLUTE MONOCYTE / ABSOLUTE SEGMENTED NEUTROPHIL / BASOPHIL / ERYTHROCYTE COUNT / HEMATOCRIT / HEMOGLOBIN / LYMPHOCYTE / MEAN CORPUSCULAR HEMOGLOBIN / MEAN CORPUSCULAR HEMOGLOBIN CONCENTRATION / MEAN CORPUSCULAR VOLUME / NEUTROPHIL / NUCLEATED RED BLOOD CELLS / PLATELET COUNT: tissue Blood; for ALANINE AMINOTRANSFERASE / ALKALINE PHOSPHATASE / ASPARTATE AMINOTRANSFERASE / BLOOD UREA NITROGEN / CHOLESTEROL / CREATINE PHOSPHOKINASE / CREATININE / GLUCOSE / LACTATE DEHYDROGENASE / LIPASE / PHOSPHORUS / POTASSIUM / SODIUM / TOTAL BILIRUBIN / TOTAL PROTEIN / CARBON DIOXIDE: tissue Plasma
[1] = 0.06 mg/kg, 120 h, dose level Low, time 5 day
[2] = […], 72 h, dose 0.25 mg/Kg, dose level High, time 3 day
[3] = […], 120 h, dose 0.25 mg/Kg, dose level High, time 5 day

SMILES: CC(=O)CC(c1ccccc1)c1c(O)c2ccccc2oc1=O (stereo not given) [WARFARIN]
- ABSOLUTE BASOPHIL [1]: 0 CELLS/uL
- ABSOLUTE EOSINOPHIL [1]: 123.33 CELLS/uL
- ABSOLUTE LYMPHOCYTE [1]: 12690 CELLS/uL
- ABSOLUTE MONOCYTE [1]: 175.33 CELLS/uL
- ABSOLUTE SEGMENTED NEUTROPHIL [1]: 1111.33 CELLS/uL
- BASOPHIL [1]: 0%
- ERYTHROCYTE COUNT [1]: 5.59 x10E6/uL
- HEMATOCRIT [1]: 35.53%
- HEMOGLOBIN [1]: 13.5 G/DL
- LYMPHOCYTE [1]: 90%
- MEAN CORPUSCULAR HEMOGLOBIN [1]: 24.2 pg
- MEAN CORPUSCULAR HEMOGLOBIN CONCENTRATION [1]: 38 G/DL
- MEAN CORPUSCULAR VOLUME [1]: 63.67 fL
- NEUTROPHIL [1]: 8%
- NUCLEATED RED BLOOD CELLS [1]: 0 /100WBC
- PLATELET COUNT [1]: 1320.67 x10E3/uL
- ALANINE AMINOTRANSFERASE [1]: 47.33 u/L
- ALKALINE PHOSPHATASE [1]: 339.67 u/L
- ASPARTATE AMINOTRANSFERASE [1]: 76.33 u/L
- BLOOD UREA NITROGEN [1]: 16 mg/dL
- CHOLESTEROL [1]: 66.67 mg/dL
- CREATINE PHOSPHOKINASE [1]: 293.33 u/L
- CREATININE [1]: 0.14 mg/dL
- GLUCOSE [1]: 149 mg/dL
- LACTATE DEHYDROGENASE [1]: 203 u/L
- LIPASE [1]: 9.33 u/L
- PHOSPHORUS [1]: 13.2 mg/dL
- POTASSIUM [1]: 6.78 MEQ/L
- SODIUM [1]: 144.27 MEQ/L
- TOTAL BILIRUBIN [1]: 0.2 mg/dL
- TOTAL PROTEIN [1]: 6 G/DL
- ABSOLUTE BASOPHIL [2]: 0 CELLS/uL
- ABSOLUTE EOSINOPHIL [2]: 246.33 CELLS/uL
- ABSOLUTE LYMPHOCYTE [2]: 13716 CELLS/uL
- ABSOLUTE MONOCYTE [2]: 364 CELLS/uL
- ABSOLUTE SEGMENTED NEUTROPHIL [2]: 1007 CELLS/uL
- BASOPHIL [2]: 0%
- ERYTHROCYTE COUNT [2]: 5.82 x10E6/uL
- HEMATOCRIT [2]: 37.73%
- HEMOGLOBIN [2]: 14.07 G/DL
- LYMPHOCYTE [2]: 89.33%
- MEAN CORPUSCULAR HEMOGLOBIN [2]: 24.2 pg
- MEAN CORPUSCULAR HEMOGLOBIN CONCENTRATION [2]: 37.33 G/DL
- MEAN CORPUSCULAR VOLUME [2]: 64.87 fL
- NEUTROPHIL [2]: 6.67%
- NUCLEATED RED BLOOD CELLS [2]: 0 /100WBC
- PLATELET COUNT [2]: 1397.33 x10E3/uL
- ALANINE AMINOTRANSFERASE [2]: 57 u/L
- ALKALINE PHOSPHATASE [2]: 354 u/L
- ASPARTATE AMINOTRANSFERASE [2]: 82 u/L
- BLOOD UREA NITROGEN [2]: 15.33 mg/dL
- CARBON DIOXIDE [2]: 25.67 mmol/L
- CHOLESTEROL [2]: 86 mg/dL
- CREATINE PHOSPHOKINASE [2]: 467.67 u/L
- CREATININE [2]: 0.18 mg/dL
- GLUCOSE [2]: 156 mg/dL
- LACTATE DEHYDROGENASE [2]: 145 u/L
- LIPASE [2]: 10.67 u/L
- PHOSPHORUS [2]: 13.7 mg/dL
- POTASSIUM [2]: 6.91 MEQ/L
- SODIUM [2]: 145.27 MEQ/L
- TOTAL BILIRUBIN [2]: 0.23 mg/dL
- TOTAL PROTEIN [2]: 5.93 G/DL
- ABSOLUTE BASOPHIL [3]: 0 CELLS/uL
- ABSOLUTE EOSINOPHIL [3]: 86.67 CELLS/uL
- ABSOLUTE LYMPHOCYTE [3]: 13093.33 CELLS/uL
- ABSOLUTE MONOCYTE [3]: 240.67 CELLS/uL
- ABSOLUTE SEGMENTED NEUTROPHIL [3]: 779.33 CELLS/uL
- BASOPHIL [3]: 0%
- ERYTHROCYTE COUNT [3]: 5.78 x10E6/uL
- HEMATOCRIT [3]: 36.23%
- HEMOGLOBIN [3]: 13.7 G/DL
- LYMPHOCYTE [3]: 92%
- MEAN CORPUSCULAR HEMOGLOBIN [3]: 23.7 pg
- MEAN CORPUSCULAR HEMOGLOBIN CONCENTRATION [3]: 37.87 G/DL
- MEAN CORPUSCULAR VOLUME [3]: 62.63 fL
- NEUTROPHIL [3]: 5.67%
- NUCLEATED RED BLOOD CELLS [3]: 0 /100WBC
- PLATELET COUNT [3]: 1328.33 x10E3/uL
- ALANINE AMINOTRANSFERASE [3]: 45.33 u/L
- ALKALINE PHOSPHATASE [3]: 285 u/L
- ASPARTATE AMINOTRANSFERASE [3]: 79.67 u/L
- BLOOD UREA NITROGEN [3]: 17.33 mg/dL
- CARBON DIOXIDE [3]: 26.67 mmol/L
- CHOLESTEROL [3]: 69.67 mg/dL
- CREATINE PHOSPHOKINASE [3]: 518.33 u/L
- CREATININE [3]: 0.2 mg/dL
- GLUCOSE [3]: 156.33 mg/dL
- LACTATE DEHYDROGENASE [3]: 92.67 u/L
- LIPASE [3]: 8.67 u/L
- PHOSPHORUS [3]: 13.27 mg/dL
- POTASSIUM [3]: 6.55 MEQ/L
- SODIUM [3]: 147.93 MEQ/L
- TOTAL BILIRUBIN [3]: 0.17 mg/dL
- TOTAL PROTEIN [3]: 6.33 G/DL

— ChEMBL document CHEMBL3885881, “DrugMatrix”
